# Laboratory results published in patent publication US11247976B2, “Synthetic ligands that modulate the activity of the RhlR quorum sensing receptor” (Wisconsin Alumni Research Foundation, priority 2016, dated 2022).
# Biological target: T1, RhlR (Pseudomonas aeruginosa, UniProt P54292)
# T1 construct: expressed in transfected cells; host or cells: E. coli JLD271 (ΔsdiA) with pJN105R2 (arabinose-induced) and pSC11-rhlI*
# Assay: E. coli RhlR reporter antagonism assay vs 10 μM BHL (JLD271/pJN105R2/pSC11-rhlI*)
# Assay type: cell-based, P. aeruginosa
# Details: E. coli reporter vs 10 μM BHL
# Description: (§1) All media and reagents for bacterial culture were purchased from commercial sources. Bacteria were cultured in Luria-Bertani broth (LB) at 37° C. with shaking at 200 rpm unless otherwise noted. The bacterial reporter strains used for this study were (i) the heterologous E. coli strain JLD271 (ΔsdiA) harboring the RhlR expression plasmid pJN105R2 and the rhlI-lacZ transcriptional fusion reporter pSC11-rhlI*, (ii) the heterologous E. coli strain JLD271 (ΔsdiA) harboring the LasR expression plasmid pJN105L and the […] transcriptional fusion reporter pSC11, and (iii) the P. aeruginosa strain PAO-JP2 (ΔlasrhlI) harboring the rhlI-gfp transcriptional fusion reporter prhlI-LVAgfp. Reporter strains JLD271/pJN105R2/pSC11-rhlI* and JLD271/pJN105L/pSC11 were grown in LB containing 100 μg/mL ampicillin and 10 μg/mL gentamicin. Freezer stocks of bacterial strains were maintained at −80° C. in 1:1 LB:50% glycerol.
# To evaluate the modulatory activities of library compounds on RhlR and LasR using E. coli reporters, the strains JLD271/pJN105R2/pSC11-rhlI* and JLD271/pJN105L/pSC11 were used, respectively, as previously described.^38, 51 The following modifications were used in the RhlR agonism reporter assay, non-native compounds (10 μM or 1 mM) were compared to 1 mM BHL as the positive control. Briefly, a subculture was prepared by diluting an overnight culture 1:10 with fresh media containing 100 μg/mL ampicillin and 10 μg/mL gentamicin, and was incubated until it had grown to OD600=0.45. In all assays, L-arabinose was added to a final concentration of 4 mg/mL to induce RhlR expression. For RhlR agonism assays, activities of test compounds were measured relative to 1 mM BHL (the concentration required to induce a maximal level of RhlR activity). […] Activity was measured relative to 10 μM BHL. Inhibition was calculated by subtracting 100% from the relative activity value. Thus, 0% inhibition mimics represents no competitive displacement of 10 μM BHL by a test compound. In all assays, modifications were made to the standard Miller assay protocol to accommodate the use of the chlorophenol red-β-D-galactopyranoside (CPRG) β-galactosidase substrate. After cell lysis, 150 μL of the aqueous layer was transferred from each well of a solvent-resistant 96-well microtiter plate to the wells of a new clear, flat-bottom 96-well microtiter plate. CPRG (4 mg/mL in phosphate-buffered saline) was added to each well in 25 μL volumes. Plates were incubated at 30° C. until the positive control wells developed a red color (approximately 30 min). The amount of processed CPRG substrate was assessed by measuring the absorbance of each well at 570 nm. Enzymatic activity was calculated using the following equation: adjusted Miller units=1000·Abs570/(OD600·t·V),
# (§2) where t is the incubation time of substrate with lysate and V is the volume of culture lysed.
# The RhlR-modulatory activity of the J library compounds was assessed in a heterologous reporter strain (E. coli JLD271 harboring plasmids pJN105R2 and pSC11-rhlI*) in order to isolate the RhlR receptor from upstream QS regulation (e.g. regulation by LasR). Thus, the extent to which compounds were directly modulating RhlR could be determined. These assays were performed by incubating compound-treated, mid-log phase E. coli reporter cells in 96-well microtiter plates, followed by Miller assay evaluation of ß-galactosidase activity.
# RhlR agonism and antagonism screens of each compound were performed initially at 10 μM.
# T1 sequence (P54292 whole entry): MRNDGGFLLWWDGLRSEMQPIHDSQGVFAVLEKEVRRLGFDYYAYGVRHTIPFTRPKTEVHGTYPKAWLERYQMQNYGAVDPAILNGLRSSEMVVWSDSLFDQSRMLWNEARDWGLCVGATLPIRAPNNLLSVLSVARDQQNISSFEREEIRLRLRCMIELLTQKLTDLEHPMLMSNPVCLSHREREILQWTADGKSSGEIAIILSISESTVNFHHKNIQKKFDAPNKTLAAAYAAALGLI
row,Compound,RhlR antagonist activity in words
1,CC(C)(C)C(=O)N[C@H]1CCOC1=O [Compound J20],capable of inhibiting RhlR activity to a statistically significant extent
2,"CC1(C(=O)N[C@H]2CCOC2=O)CC1 [Compound J27, 1-methyl-cylclopropanoyl AHL]",capable of inhibiting RhlR activity to a statistically significant extent

# Same assay, conditions: compound at 10 μM in the presence of 10 μM BHL; negative = agonism stronger than 10 μM BHL alone
row,Compound,% inhibition (10 μM)
1,"CCCCCCCCCC(=O)CC(=O)N[C@H]1CCOC1=O [OdDHL, N-(3-oxododecanoyl) HL, reference compound]",18%

# Same assay, conditions: read-out: % inhibition (10 μM), compound at 10 μM in the presence of 10 μM BHL; negative = agonism stronger than 10 μM BHL alone
row,Compound,inhibition at 10 µM
1,CCC(=O)N[C@H]1CCOC1=O [Compound C3-AHL],-5%
2,CCCCC(=O)N[C@H]1CCOC1=O [Compound C5-AHL],-18%
3,C=CCC(=O)N[C@H]1CCOC1=O [Compound J2],6%
4,C=CCCCC(=O)N[C@H]1CCOC1=O [Compound J3],-4%
5,C/C=C/CC(=O)N[C@H]1CCOC1=O [Compound J4],9%
6,C/C=C\CC(=O)N[C@H]1CCOC1=O [Compound J5],-12%
7,C#CCCC(=O)N[C@H]1CCOC1=O [Compound J7],-7%
8,C#CCCCC(=O)N[C@H]1CCOC1=O [Compound J8],-2%
9,CC(C)C(=O)N[C@H]1CCOC1=O [Compound J17],-30%
10,CC(C)(C)C(=O)N[C@H]1CCOC1=O [Compound J20],0%
11,"CC1(C(=O)N[C@H]2CCOC2=O)CC1 [Compound J27, 1-methyl-cylclopropanoyl AHL]",2%

# Same assay, conditions: read-out: % inhibition (1 mM), compound at 1 mM in the presence of 10 μM BHL; negative = agonism stronger than 10 μM BHL alone
row,Compound,inhibition at 1000 µM
1,CCC(=O)N[C@H]1CCOC1=O [Compound C3-AHL],-66%
2,CCCCC(=O)N[C@H]1CCOC1=O [Compound C5-AHL],-91%
3,C=CCC(=O)N[C@H]1CCOC1=O [Compound J2],-110%
4,C=CCCCC(=O)N[C@H]1CCOC1=O [Compound J3],-69%
5,C/C=C/CC(=O)N[C@H]1CCOC1=O [Compound J4],-47%
6,C/C=C\CC(=O)N[C@H]1CCOC1=O [Compound J5],-74%
7,C#CCCC(=O)N[C@H]1CCOC1=O [Compound J7],-83%
8,C#CCCCC(=O)N[C@H]1CCOC1=O [Compound J8],-76%
9,CC(C)C(=O)N[C@H]1CCOC1=O [Compound J17],-112%
10,CC(C)(C)C(=O)N[C@H]1CCOC1=O [Compound J20],25%
11,"CC1(C(=O)N[C@H]2CCOC2=O)CC1 [Compound J27, 1-methyl-cylclopropanoyl AHL]",24%

# Same assay, conditions: screened at a maximal concentration of 200 microM (solubility), in the presence of 10 μM BHL
row,Compound,% inhibition at 200 µM
1,"CCCCCCCCCC(=O)CC(=O)N[C@H]1CCOC1=O [OdDHL, N-(3-oxododecanoyl) HL, reference compound]",53%

# Biological target: T1, RhlR
# Assay: E. coli RhlR reporter agonism assay (JLD271/pJN105R2/pSC11-rhlI*)
# Assay type: cell-based, P. aeruginosa
# Details: not given
# Description: as §1
# To evaluate the modulatory activities of library compounds on RhlR and LasR using E. coli reporters, the strains JLD271/pJN105R2/pSC11-rhlI* and JLD271/pJN105L/pSC11 were used, respectively, as previously described.^38, 51 The following modifications were used in the RhlR agonism reporter assay, non-native compounds (10 μM or 1 mM) were compared to 1 mM BHL as the positive control. Briefly, a subculture was prepared by diluting an overnight culture 1:10 with fresh media containing 100 μg/mL ampicillin and 10 μg/mL gentamicin, and was incubated until it had grown to OD600=0.45. In all assays, L-arabinose was added to a final concentration of 4 mg/mL to induce RhlR expression. For RhlR agonism assays, activities of test compounds were measured relative to 1 mM BHL (the concentration required to induce a maximal level of RhlR activity). For RhlR antagonism assays, test compounds were competed against a concentration of BHL approximately equal to its EC50 value (10 μM). Activity was measured relative to 10 μM BHL. Inhibition was calculated by subtracting 100% from the relative activity value. Thus, 0% inhibition mimics represents no competitive displacement of 10 μM BHL by a test compound. In all assays, modifications were made to the standard Miller assay protocol to accommodate the use of the chlorophenol red-β-D-galactopyranoside (CPRG) β-galactosidase substrate. After cell lysis, 150 μL of the aqueous layer was transferred from each well of a solvent-resistant 96-well microtiter plate to the wells of a new clear, flat-bottom 96-well microtiter plate. CPRG (4 mg/mL in phosphate-buffered saline) was added to each well in 25 μL volumes. Plates were incubated at 30° C. until the positive control wells developed a red color (approximately 30 min). The amount of processed CPRG substrate was assessed by measuring the absorbance of each well at 570 nm. Enzymatic activity was calculated using the following equation: adjusted Miller units=1000·Abs570/(OD600·t·V),
# as §2
# Because LuxR-type receptors are often unstable in solution, preventing the use of in vitro assays to directly assess small molecule agonism and antagonism, reporter gene assays represent a standard method for screening small-molecule libraries for LuxR-type receptor modulation. Previously reported strains for this purpose were used in the current study.^38 Synthetic N-butanoyl L-homoserine lactone (BHL), the native ligand of RhlR, was used as the positive control for receptor activation. Commonly, agonists are measured relative to maximum possible receptor activation within a particular assay medium;^40 because the dose-response curve of BHL is distinctly shallow in these RhlR reporters, a high concentration of BHL is required to maximally activate RhlR. In this study, activation of compounds was measured relative to that elicited by 1 mM BHL (the concentration of BHL used causes no aberrant growth effects in the reporter strain). […]
row,Compound,EC50
1,CCCCC(=O)N[C@H]1CCOC1=O [Compound C5-AHL],10.8 µM
2,C/C=C\CC(=O)N[C@H]1CCOC1=O [Compound J5],6.93 µM
3,CC(C)C(=O)N[C@H]1CCOC1=O [Compound J17],4.89 µM

# Same assay, conditions: compound at 10 μM; RhlR activity relative to 1 mM BHL; E. coli reporter
Compound,activation at 10 µM,% activation
CCC(=O)N[C@H]1CCOC1=O [Compound C3-AHL],25%,
CCCCC(=O)N[C@H]1CCOC1=O [Compound C5-AHL],53%,
C=CCC(=O)N[C@H]1CCOC1=O [Compound J2],39%,
C=CCCCC(=O)N[C@H]1CCOC1=O [Compound J3],41%,
C/C=C/CC(=O)N[C@H]1CCOC1=O [Compound J4],21%,
C/C=C\CC(=O)N[C@H]1CCOC1=O [Compound J5],52%,
C#CCCC(=O)N[C@H]1CCOC1=O [Compound J7],45%,
C#CCCCC(=O)N[C@H]1CCOC1=O [Compound J8],34%,
CC(C)C(=O)N[C@H]1CCOC1=O [Compound J17],62%,
CC(C)(C)C(=O)N[C@H]1CCOC1=O [Compound J20],1%,
"CC1(C(=O)N[C@H]2CCOC2=O)CC1 [Compound J27, 1-methyl-cylclopropanoyl AHL]",2%,
"CCCCCCCCCC(=O)CC(=O)N[C@H]1CCOC1=O [OdDHL, N-(3-oxododecanoyl) HL, reference compound]",,5%

# Same assay, conditions: dose-response, E. coli reporter
row,Compound,RhlR agonist potency in words
1,CC(C)C(=O)N[C@H]1CCOC1=O [Compound J17],significantly more potent than BHL

# Same assay, conditions: read-out: Maximum Activation (%)
row,Compound,Emax
1,CCCCC(=O)N[C@H]1CCOC1=O [Compound C5-AHL],80%
2,C/C=C\CC(=O)N[C@H]1CCOC1=O [Compound J5],80%
3,CC(C)C(=O)N[C@H]1CCOC1=O [Compound J17],95%

# Same assay, conditions: single-concentration screen at 10 μM, E. coli reporter
row,Compound,RhlR agonist activity in words
1,CCC(=O)N[C@H]1CCOC1=O [Compound C3-AHL],comparably less active than their respective counterparts
2,CCCCC(=O)N[C@H]1CCOC1=O [Compound C5-AHL],comparable RhlR activation to that of BHL
3,C=CCC(=O)N[C@H]1CCOC1=O [Compound J2],comparably less active than their respective counterparts
4,C/C=C\CC(=O)N[C@H]1CCOC1=O [Compound J5],activities statistically insignificant from native ligand BHL
5,C#CCCC(=O)N[C@H]1CCOC1=O [Compound J7],activities statistically insignificant from native ligand BHL
6,CC(C)C(=O)N[C@H]1CCOC1=O [Compound J17],comparable RhlR activation to that of BHL
7,CC(C)(C)C(=O)N[C@H]1CCOC1=O [Compound J20],inactive as agonists
8,"CC1(C(=O)N[C@H]2CCOC2=O)CC1 [Compound J27, 1-methyl-cylclopropanoyl AHL]",inactive
